In patent US12391674B2, “Heterocyclic compounds for the treatment of epilepsy” (OTSUKA PHARMACEUTICAL CO., LTD., priority 2018, dated 2025):

What was measured:
DBA/2 mice = test: Audiogenic seizure model; format: in vivo; conditions: Mus musculus, DBA/2 mice, oral, auditory stimulation 1 hour after administration, read-out: Seizure suppression
Method in brief: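 Male and female DBA/2 mice (3 weeks old, 8/group) dosed orally at 30 mg/kg in 5% gum arabic; 1 h later exposed to 12.6 kHz, 100-110 dB tone for 1 min or until tonic seizure. Maximum seizure score (0–4) recorded; suppression rate graded A (≥90%), B (70–<90%), C (50–<70%).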

ICR mice = test: Rotarod test (motor coordination); format: in vivo, mouse; conditions: oral, rotarod 1 hour after administration
Protocol: This test is performed to evaluate the effect of the compound on the motor coordination. In this test example, the example compounds shown in Table 4 below were used as test compounds. Male ICR mice (Japan SLC, Inc., 5-6 weeks, 8 per group) were trained to remain on a fixed speed (15 rpm) rotating rod of rotarod apparatus (Muromachi Kikai Co., Ltd.) for 2 minutes. […] After 1 hour of oral administration, the mice were again placed on the rod accelerated from 4 rpm to 40 rpm over 5 minutes and the latency to fall off the rod was recorded for 200 seconds. The falling latency of the compound administration group was calculated as a relative value relative to the average value of the falling latency in the solvent administration group. Here, a coordination disorder of 25% or less was expressed as “A”, and a coordination disorder of more than 25% and 50% or less was expressed as “B”.

| Structure (SMILES) | inhibition in vivo at 5 mg/kg (DBA/2 mice) [%] | Motor dysfunction (ICR mice; dose 5 mg/kg) | inhibition in vivo at 30 mg/kg (DBA/2 mice) [%] | Motor dysfunction (ICR mice; dose 30 mg/kg) |
| --- | --- | --- | --- | --- |
| c1ccc(Oc2ncc(-c3ccn4nccc4n3)cn2)cc1 [Example 134] | > 90 | B (a coordination disorder of more than 25% and 50% or less) |  |  |
| c1ccc(Oc2ncc(-c3cnc4cc[nH]c4c3)cn2)cc1 [Example 137, 6-(2-Phenoxypyrimidin-5-Yl)-1H-Pyrrolo[3,2-b]Pyridine] |  |  | > 90 | A (a coordination disorder of 25% or less) |
| c1ccc(Oc2ncc(-c3ccc4ncnn4c3)cn2)cc1 [Example 141] | > 90 | B (a coordination disorder of more than 25% and 50% or less) |  |  |
| c1ccc(Oc2ncc(-c3ccc4ncccc4n3)cn2)cc1 [Example 143] |  |  | > 90 | A (a coordination disorder of 25% or less) |
| c1ccc(Oc2ncc(-c3cn4ccnc4cn3)cn2)cc1 [Example 148] |  |  | > 90 | A (a coordination disorder of 25% or less) |
| c1ccc(Oc2ncc(-c3ccc4ccnn4c3)cn2)cc1 [Example 151] | > 90 | A (a coordination disorder of 25% or less) |  |  |
| c1ccc(Oc2ncc(-c3ccc4cncn4c3)cn2)cc1 [Example 155] | > 90 | A (a coordination disorder of 25% or less) |  |  |
| Cc1cccc(Oc2ncc(-c3ccc4nccn4c3)cn2)c1 [Example 161] | > 90 | A (a coordination disorder of 25% or less) |  |  |
| COc1cccc(Oc2ncc(-c3ccc4nccn4c3)cn2)c1 [Example 162] | > 90 | A (a coordination disorder of 25% or less) |  |  |
| Clc1cccc(Oc2ncc(-c3ccc4nccn4c3)cn2)c1 [Example 163, 6-(2-(3-Chlorophenoxy)Pyrimidin-5-Yl) Imidazo[1,2-a]Pyridine] | > 90 | A (a coordination disorder of 25% or less) |  |  |
| FC(F)(F)c1cccc(Oc2ncc(-c3ccc4nccn4c3)cn2)c1 [Example 170] | > 90 | A (a coordination disorder of 25% or less) |  |  |
| FC(F)(F)Oc1cccc(Oc2ncc(-c3ccc4nccn4c3)cn2)c1 [Example 171] | > 90 | A (a coordination disorder of 25% or less) |  |  |
| O=C1Cc2nc(-c3cnc(Oc4ccccc4)nc3)ccc2N1 [Example 172, 5-(2-Phenoxypyrimidin-5-Yl)-1H-Pyrrolo[3,2-b]Pyridin-2 (3H)-One] | > 90 | A (a coordination disorder of 25% or less) |  |  |
| c1ccc(Oc2ncc(-c3ccc4cnnn4c3)cn2)cc1 [Example 173, 6-(2-Phenoxypyrimidin-5-Yl)-[1,2,3]Triazolo[1,5-a]Pyridine] | > 90 | A (a coordination disorder of 25% or less) |  |  |
| Cc1cn2cc(-c3cnc(Oc4ccccc4)nc3)ccc2n1 [Example 177] | 70 to 90 | A (a coordination disorder of 25% or less) |  |  |
| Cc1cn2ccc(-c3cnc(Oc4ccccc4)nc3)cc2n1 [Example 181] | 70 to 90 | A (a coordination disorder of 25% or less) |  |  |
| c1ccc(Oc2ncc(-c3ccn4nncc4c3)cn2)cc1 [Example 184] | > 90 | A (a coordination disorder of 25% or less) |  |  |
| c1ccc(Oc2ncc(-c3cnc4ncnn4c3)cn2)cc1 [Example 188] |  |  | > 90 | A (a coordination disorder of 25% or less) |
| Cc1cnc2ccc(-c3cnc(Oc4ccccc4)nc3)cn12 [Example 190] | > 90 | A (a coordination disorder of 25% or less) |  |  |

| Structure (SMILES) | inhibition in vivo at 5 mg/kg (DBA/2 mice) [%] | Motor dysfunction (ICR mice; dose 5 mg/kg) | inhibition in vivo at 30 mg/kg (DBA/2 mice) [%] | Motor dysfunction (ICR mice; dose 30 mg/kg) |
| --- | --- | --- | --- | --- |
| Cc1c(-c2cnc(Oc3ccccc3)nc2)ccc2nccn12.Cl [Example 198, 5-Methyl-6-(2-Phenoxypyrimidin-5-Yl) Imidazo[1,2-a]Pyridine Hydrochloride] | > 90 | A (a coordination disorder of 25% or less) |  |  |
| Cc1nc2cc(-c3cnc(Oc4ccccc4)nc3)ccn2c1C [Example 204] |  | A (a coordination disorder of 25% or less) | > 90 |  |
| c1ccc(Oc2ncc(-c3ccn4cnnc4c3)cn2)cc1 [Example 211] |  |  | > 90 | B (a coordination disorder of more than 25% and 50% or less) |
| FC(F)(F)c1cn2cc(-c3cnc(Oc4ccccc4)nc3)ccc2n1 [Example 214] |  |  | > 90 | A (a coordination disorder of 25% or less) |
| FC(F)(F)c1cn2ccc(-c3cnc(Oc4ccccc4)nc3)cc2n1 [Example 216] | > 90 | A (a coordination disorder of 25% or less) |  |  |
| O=C1NCCCN1c1cnc(Oc2ccccc2)nc1 [Example 220, 1-(2-Phenoxypyrimidin-5-Yl)Tetrahydropyrimidin-2 (1H)-One] |  |  | > 90 | A (a coordination disorder of 25% or less) |
| O=C1CCCCN1c1cnc(Oc2cccc(F)c2)nc1 [Example 222] |  |  | > 90 | A (a coordination disorder of 25% or less) |
| c1ccc(Oc2ncc(N3CCCCC3)cn2)cc1 [Example 223, 2-Phenoxy-5-(Piperidine-1-Yl)Pyrimidine] |  |  | > 90 | A (a coordination disorder of 25% or less) |
| c1ccc(Oc2ncc(N3CCOCC3)cn2)cc1 [Example 224] |  |  | > 90 | A (a coordination disorder of 25% or less) |
| OC1CCN(c2cnc(Oc3ccccc3)nc2)CC1 [Example 226, 1-(2-Phenoxypyrimidin-5-Yl) Piperidin-4-Ol] | > 90 | B (a coordination disorder of more than 25% and 50% or less) |  |  |
| O=C1COCCN1c1cnc(Oc2ccccc2)nc1 [Example 229, 4-(2-Phenoxypyrimidin-5-Yl) Morpholin-3-One] |  |  | > 90 | A (a coordination disorder of 25% or less) |
| O=C1C[C@H](O)CCN1c1cnc(Oc2ccccc2)nc1 [Example 235] |  |  | > 90 | A (a coordination disorder of 25% or less) |
| c1ccc(Oc2ncc(-c3ccc4c(c3)OCO4)cn2)cc1 [Example 236] |  |  | > 90 | A (a coordination disorder of 25% or less) |
| N#Cc1cccc(-c2cnc(Oc3ccccc3)nc2)c1 [Example 237] |  |  | > 90 | A (a coordination disorder of 25% or less) |
| Nc1ccc(-c2cnc(Oc3ccccc3)nc2)cc1 [Example 239, 4-(2-Phenoxypyrimidin-5-Yl) Aniline] |  |  | > 90 | A (a coordination disorder of 25% or less) |
| NC(=O)c1ccc(-c2cnc(Oc3ccccc3)nc2)cc1 [Example 243] | > 90 | A (a coordination disorder of 25% or less) |  |  |
| O=C1CCc2cc(-c3cnc(Oc4ccccc4)nc3)ccc2N1 [Example 245] |  |  | > 90 | A (a coordination disorder of 25% or less) |
| c1ccc(Oc2ncc(-c3cccc4cnccc34)cn2)cc1 [Example 248] | > 90 | A (a coordination disorder of 25% or less) |  |  |
